Measured values as given in ChEMBL document CHEMBL1135777, “Three-dimensional quantitative structure-activity relationships of mazindol analogues at the dopamine transporter” (J Med Chem, 2002).

These compounds were tested against Sodium-dependent dopamine transporter (Rattus norvegicus, UniProt P23977) (assay: Ability to displace [3H]WIN-35428 from dopamine transporter in rat caudate putamen tissue).
Chain of Sodium-dependent dopamine transporter (P23977 whole entry): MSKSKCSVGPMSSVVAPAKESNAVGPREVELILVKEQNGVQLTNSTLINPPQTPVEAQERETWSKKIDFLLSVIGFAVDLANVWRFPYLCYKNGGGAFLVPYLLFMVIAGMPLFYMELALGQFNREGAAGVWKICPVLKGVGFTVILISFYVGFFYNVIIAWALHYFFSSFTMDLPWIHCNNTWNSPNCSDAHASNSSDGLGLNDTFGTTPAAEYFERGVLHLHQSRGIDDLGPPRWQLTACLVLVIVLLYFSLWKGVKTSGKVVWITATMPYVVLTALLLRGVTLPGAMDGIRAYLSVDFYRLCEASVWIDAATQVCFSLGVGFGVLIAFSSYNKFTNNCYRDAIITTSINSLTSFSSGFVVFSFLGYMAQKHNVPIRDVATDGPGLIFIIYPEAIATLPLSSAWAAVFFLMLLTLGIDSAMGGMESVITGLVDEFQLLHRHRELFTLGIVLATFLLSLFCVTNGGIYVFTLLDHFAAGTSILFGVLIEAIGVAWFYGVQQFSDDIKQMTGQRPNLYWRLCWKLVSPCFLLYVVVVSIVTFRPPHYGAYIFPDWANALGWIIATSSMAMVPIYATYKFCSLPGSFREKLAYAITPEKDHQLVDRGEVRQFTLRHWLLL
Assay type: tissue-based
In the case of `OC1(c2ccc(CN3CCCCC3)cc2)c2ccccc2C2=NCCCN21` (configuration not stated), the IC50 is reported as 1.2 µM. `O=C(c1ccc(Cl)cc1)c1ccccc1-c1ncc[nH]1` showed an IC50 of 2.8 µM. For `COc1ccc(C2(O)c3ccccc3C3=NCCCN32)cc1OC` (configuration not stated), the IC50 was 0.087 µM. `OC1(c2ccc(Cl)cc2)c2ccccc2C2=NCCCN21` (configuration not stated) gave an IC50 of 0.001 µM. In the case of `Oc1ccc(C2(O)c3ccccc3C3=NCCCN32)cc1` (configuration not stated), the IC50 is reported as 0.0034 µM. Compound `OC1(c2cccnc2)c2ccccc2C2=NCCN21` (configuration not stated) has an IC50 of 0.64 µM. For `[O-][S+](c1ccc(Cl)cc1)c1ccccc1C1=NCCN1` (configuration not stated), the IC50 was 7.3 µM. Work on `OC1(c2ccc(C(F)(F)F)cc2)c2ccccc2C2=NCCN21` (configuration not stated) yielded an IC50 of 0.29 µM. `CN(C)Cc1ccc(C2(O)c3ccccc3C3=NCCN32)cc1` (configuration not stated) gave an IC50 of 2.8 µM. Work on `COC(=O)c1ccc(C2(O)c3ccccc3C3=NCCN32)cc1` (configuration not stated) yielded an IC50 of 3.3 µM. Compound `Clc1ccc(Sc2ccccc2C2=NCCN2)cc1` has an IC50 of 0.32 µM. Compound `OC1(c2ccc3ccccc3c2)c2ccccc2C2=NCCN21` (configuration not stated) has an IC50 of 0.023 µM. `Cn1ccnc1-c1ccccc1C(=O)c1ccc(Cl)cc1` was tested, and the IC50 was 4.3 µM. Work on `OC1(c2ccccn2)c2ccccc2C2=NCCN21` (configuration not stated) yielded an IC50 of 3.7 µM. `COc1ccc(C2(O)c3ccccc3C3=NCCCN32)cc1` (configuration not stated) gave an IC50 of 0.0025 µM. With `OC1(c2cccc(C(F)(F)F)c2)c2ccccc2C2=NCCN21` (configuration not stated) the IC50 was 0.23 µM. Work on `O=S(=O)(c1ccc(Cl)cc1)c1ccccc1C1=NCCN1` yielded an IC50 of 6.5 µM. `OC1(c2ccc(Cl)cc2)c2ccc3ccccc3c2C2=NCCN21` (configuration not stated) showed an IC50 of 0.016 µM. `CC1(C)COC(c2ccc(C(=O)c3ccc(Cl)cc3)cc2)=N1` gave an IC50 of 1.9 µM. `OC1(C/C=C/c2ccccc2)c2ccccc2C2=NCCN21` (configuration not stated) gave an IC50 of 9.3 µM. For `OC1(C23C[C@H]4C[C@@H](C2)C[C@@H](C3)C4)c2ccccc2C2=NCCN21` (some centres not stated), the IC50 was 4.9 µM. Compound `OC1(c2ccc(Cl)cc2)c2cccc3cccc(c23)C2=NCCCN21` (configuration not stated) has an IC50 of 0.042 µM. Compound `O=C(c1ccc(Cl)cc1)c1cccc(C2=NCCN2)c1` has an IC50 of 2.2 µM. `Clc1ccc(Oc2ccccc2C2=NCCN2)cc1` showed an IC50 of 0.19 µM. For `OC1(c2ccc(Cl)cc2)c2ccccc2C2=N[C@@H]3CCCC[C@H]3N21` (some centres not stated), the IC50 was 0.034 µM. `OC1(c2ccc(Cl)cc2)c2ccc3ccccc3c2C2=NCCCN21` (configuration not stated) gave an IC50 of 0.037 µM. `OC1CN=C2c3ccccc3C(O)(c3ccc(Cl)cc3)N2C1` (configuration not stated) was tested, and the IC50 was 0.01 µM. `CC1(C2(O)c3ccccc3C3=NCCN32)CCCCC1` (configuration not stated) showed an IC50 of 3.5 µM. In the case of `Clc1ccc(Cc2ccccc2C2=NCCN2)cc1`, the IC50 is reported as 4 µM. `CC1(C)COC(c2ccccc2C(=O)c2ccc(Cl)cc2)=N1` gave an IC50 of 0.56 µM. With `COc1ccc(C2(O)c3ccccc3C3=NCCN32)cc1OC` (configuration not stated) the IC50 was 6.9 µM. `OC1(c2ccncc2)c2ccccc2C2=NCCN21` (configuration not stated) was tested, and the IC50 was 0.063 µM. `CC(C)(C)C1(O)c2ccccc2C2=NCCN21` (configuration not stated) showed an IC50 of 9.5 µM. Compound `OC(c1ccc(Cl)cc1)c1ccc(C2=NCCN2)cc1` (configuration not stated) has an IC50 of 1.6 µM. For `C=CCOc1ccc(C2(O)c3ccccc3C3=NCCCN32)cc1` (configuration not stated), the IC50 was 0.072 µM. `Cc1ccc(C2(O)c3ccccc3C3=NCCN32)cc1` (configuration not stated) was tested, and the IC50 was 0.093 µM. `OC1(c2ccc3ccccc3c2)c2ccc3ccccc3c2C2=NCCN21` (configuration not stated) was tested, and the IC50 was 0.038 µM. `OC1(c2ccc(COc3ccccc3)cc2)c2ccccc2C2=NCCN21` (configuration not stated) showed an IC50 of 0.72 µM. `CC1(C)COC(c2cccc(C(O)c3ccc(Cl)cc3)c2)=N1` (configuration not stated) gave an IC50 of 16 µM. With `OC1(c2ccc(OCc3ccccc3)cc2)c2ccccc2C2=NCCCN21` (configuration not stated) the IC50 was 0.1 µM. With `OC(c1ccc(Cl)cc1)c1ccccc1C1=NCCN1` (stereo in doubt; 53) the IC50 was 0.19 µM. Compound `OC(c1ccc(Cl)cc1)c1ccccc1C1=NCCN1` (stereo in doubt; 54) has an IC50 of 2.7 µM.
